Patent publication US20180161310A1, “COMPOUNDS AND METHODS FOR THE TREATMENT OF NEUROLOGICAL DISORDERS” (Teleos Therapeutics, LLC, priority 2016, published 2018)
Where two headings read alike, the source gives them in different places.

What was measured:
Kv7.2/7.3 (KCNQ2/3) = molecular target: T1, Kv7.2/7.3 (KCNQ2/3) (Homo sapiens, UniProt O43525+O43526); assay: CHO-Kv7.2/7.3 (KCNQ2/3) 86Rb efflux assay; format: cell-based; details: for Conc μM @ Max Flux: concentration at which maximal 86Rb flux was seen; for Fitted Max %: fit, maximum activation set at 100% of 70 mM KCl control stimulus; for Emax: read-out: Max Flux %
T1 construct: expressed in transfected cells; host or cells: CHO
Protocol: Compounds were tested at concentrations from 0.001 μM to 30 μM to generate 10-point concentration-response curve (CRC) (n=2). Retigabine and ML213 were included as control activators of Kv7.2/7.3 (KCNQ2/3). Data was normalized to ^86Rb flux elicited by application of extracellular buffer containing 70 mM KCl.
Data were fit with “maximum activation” set at 100% of 70 mM KCl control stimulus.

[1] = system: VU0463271-induced phenotype (KCC2 inhibition) in zebrafish larvae; assay: animal or person; details: for EC50: Danio rerio, read-out: in vivo EC50; for peak activity: concentration of peak effect, doses 2.5-320 uM, suppression of KCC2-inhibited phenotype in zebrafish
Protocol: To quantify the ability of the same drugs to reverse (or “rescue”) the phenotype caused by either 2.5 μM VU0463271 or 5 μM VU0240551, a rescue score between 0 (no rescue) and 1 (maximal theoretical rescue) was calculated (FIG. 2C). A rescue score incorporates and quantifies the degree of phenotypic reversal and the level of sedation in each concentration tested (see Materials and Methods below).
A diverse collection of 37,000 uncharacterized small molecules were used in a suppressor screen against either 2.5 μM VU0463271 (27,000 compounds) or 5 μM VU0240551 (10,000 compounds), along with 3,700 control wells treated with DMSO alone and 3,700 control wells treated with the KCC2 inhibitor. Each well of a 96-well plate containing at least about 8 zebrafish larvae was treated with a library compound or DMSO followed by treatment with the KCC2 inhibitor. Behavioral profiles pre- and post-treatment with the KCC2 inhibitor were evaluated using the behavioral assay battery described herein, and a detailed quantitative readout of about 15,000 time points was generated for each well. These behavioral profiles were used to calculate a screening score for each library compound, which incorporates and quantifies the rescue score and sedation index (see Materials and Methods).
In some cases, small molecules that alter the KCC2 inhibition phenotype may reverse the behavioral phenotype back to the normal, but could also elicit a new undesired phenotype, which is different from a normal behavior. To discriminate between these possibilities, vector algebra was used to compare each behavioral profile to the behavioral profile of DMSO-treated larvae and defined a value for the phenotypic distance from DMSO. The screen score of each compound was then plotted against its averaged phenotypic distance from DMSO (FIG. 3A) and MI (FIG. 3B) to filter out compounds that elicit a profile that is very different from the control one and compounds that reduce overall activity, respectively.
The reproducibility of the effects and the active concentration ranges of the 30 hits selected, as described above, were determined. Their rescue efficacies were retested in at least six concentrations and their rescue scores were also recalculated.
TT0023831 and six analogs were tested at a range of doses from 2.5-320 uM in a behavioral assay designed to assess the ability of compounds to suppress the effects of KCC2 inhibition. The graphs of FIG. 11 indicate the degree of suppression of the KCC2-inhibited phenotype, where a score of 1 represents complete restoration of KCC2-treated zebrafish to normal. […] Table 4 summarizes the estimated EC50 values and peak effect values for each compound.
A large number of fertilized zebrafish eggs (up to 20,000 embryos per day) were collected from group matings of wild type Ekkwill/Singapore zebrafish. Embryos were raised in hatching jars at 28° C. on a 14/10 hour light/dark cycle until 3 days post fertilization (dpf), then transferred to an incubator under the same conditions until 7 dpf. Groups of eight larvae (7 dpf) were distributed into the wells of a clear flat bottom square well 96-well plates filled with E3 medium (300 μl). Larvae were then incubated at 25° C. on the bench top for one-hour chemical treatment and subsequent experiments.
A library containing 37,000 uncharacterized small molecules was purchased from Life Chemicals and dissolved in DMSO at a stock concentration of 10 mM.

[2] = system: PTZ-induced behavior in zebrafish larvae; assay: Suppression of PTZ-induced behavior in zebrafish larvae; format: in vivo
Protocol: Differences between behavioral profiles of larval zebrafish treated with KCC2 inhibitors and larval zebrafish treated with PTZ were investigated by evaluating the ability of traditional anti-seizure drugs to reverse their effects. Five drugs in at least six concentrations (by allocating 12 wells per concentration) were tested. These drugs included a benzodiazepine anxiolytic (diazepam), two AEDs that increase GABA levels in the synapse (tiagabine and valproate), a sodium channel blocker (phenytoin) and a synthetic neurosteroid GABAA positive allosteric modulator (PAM, ganaxolone).

[3] = 10-point CRC 0.001-30 μM, n=2, fit with maximum activation set at 100% of 70 mM KCl control, read-out: EC50
[4] = 86Rb flux normalized to 70 mM KCl control
[5] = Table 7, first line of values, read-out: EC50 (μM, raw)
[6] = Table 7, second, unlabelled line of values, read-out: EC50 (μM, raw)

| Structure (SMILES) | EC50 (Kv7.2/7.3 (KCNQ2/3); [3]) [µM] | Conc μM @ Max Flux (Kv7.2/7.3 (KCNQ2/3)) [µM] | Fitted Max % (Kv7.2/7.3 (KCNQ2/3)) [%] | Emax (Kv7.2/7.3 (KCNQ2/3); [4]) [%] | EC50 (Kv7.2/7.3 (KCNQ2/3); [5]) [µM] | EC50 (Kv7.2/7.3 (KCNQ2/3); [6]) [µM] | EC50 [1] [µM] | peak activity [1] [µM] | other results |
| --- | --- | --- | --- | --- | --- | --- | --- | --- | --- |
| Cc1cc(C)c(NC(=O)C2CC3CCC2C3)c(C)c1 (stereo not shown) [ML213, reference compound] | 0.02 | 0.3 | 98 |  |  |  |  |  | Max Flux % (Kv7.2/7.3 (KCNQ2/3); [4]): 109%; 86Rb flux elicited by reference activators (Kv7.2/7.3 (KCNQ2/3); EC50 values comparable to literature values): robust concentration-dependent |
| CCOC(=O)Nc1ccc(NCc2ccc(F)cc2)cc1N [Retigabine, reference compound] | 0.1 |  |  | 89 |  |  |  |  |  |
| CCCOc1nn(CCC)cc1C(=O)Nc1ccc(F)cc1F [TT0000349, N-(2,4-difluorophenyl)-3-propoxy-1-propyl-1H-pyrazole-4-carboxamide] | > 30 | 10 | 100 | 33 | 0.54 | > 30 |  |  |  |
| CCCOc1nn(CCC)cc1C(=O)Nc1cc(F)ccc1F [TT0000351, N-(2,5-difluorophenyl)-3-propoxy-1-propyl-1H-pyrazole-4-carboxamide] | > 30 | 10 | 100 | 33 | > 30 | > 10 |  |  |  |
| CCCOc1nn(CCC)cc1C(=O)Nc1ccc(F)c(Cl)c1 [TT0000352, N-(3-chloro-4-fluorophenyl)-3-propoxy-1-propyl-1H-pyrazole-4-carboxamide] | > 30 | 3 | 100 | 33 | 0.48 | 0.14 |  |  |  |
| CCCOc1nn(CCC)cc1C(=O)Nc1ccccc1 [TT0000363, N-phenyl-3-propoxy-1-propyl-1H-pyrazole-4-carboxamide] | > 30 | 0.001 | 100 | 15 | > 30 | > 30 |  |  |  |
| CCCOc1nn(CCC)cc1C(=O)Nc1ccc(C#N)cc1 [TT0000366, N-(4-cyanophenyl)-3-propoxy-1-propyl-1H-pyrazole-4-carboxamide] | > 30 | 3 | 100 | 28 | 0.0054 | > 30 |  |  |  |
| CCCOc1nn(CCC)cc1C(=O)Nc1ccc(C(F)(F)F)c(F)c1 [TT0000367, N-(3-fluoro-4-(trifluoromethyl)phen-yl)-3-propoxy-1-propyl-1H-pyrazole-4-carboxamide] | > 30 | 0.01 | 100 | 21 | > 30 | > 30 |  |  | suppression score dose response compared with other compounds as suppressor of the hyperexcitability phenotype ([1]; zebrafish, FIG. 8 / FIG. 10): outperform the other compounds tested |
| CCCOc1nn(CCC)cc1C(=O)Nc1ccc(C(F)(F)F)c(Cl)c1 [TT0000369, N-(3-chloro-4-(trifluoromethyl)phen-yl)-3-propoxy-1-propyl-1H-pyrazole-4-carboxamide] | > 30 | 3 | 100 | 35 | 1.54 | 2.63 |  |  |  |
| CCCOc1nn(CCC)cc1C(=O)Nc1ccc(C(F)(F)F)c(C)c1 [TT0000372, N-(3-methyl-4-(trifluoromethyl)phen-yl)-3-propoxy-1-propyl-1H-pyrazole-4-carboxamide] | > 30 | 10 | 100 | 31 | 9.5 | 1.6 |  |  |  |
| COc1cc(C)c(Br)cc1S(=O)(=O)NCCN1CCOCC1 [TT0027052, 5-bromo-2-methoxy-4-methyl-N-(2-morpholinoethyl)benzene-sulfonamide] |  |  |  |  |  |  | 5 | 20 |  |
| COc1cc(C)c(C)cc1S(=O)(=O)NCCN1CCOCC1 [TT0038280, 2-methoxy-4,5-dimethyl-N-(2-morpholinoethyl)benzene-sulfonamide] |  |  |  |  |  |  | 40 | 80 |  |
| CCOc1ccc(Br)cc1S(=O)(=O)NCCN1CCOCC1 [TT0048134, 5-bromo-2-ethoxy-N-(2-morpholinoethyl)benzene-sulfonamide] |  |  |  |  |  |  | 15 | 20 |  |
| COc1cc(C)c(C(C)C)cc1S(=O)(=O)NCC1CCCO1 (stereo not shown) [TT0048274, 5-isopropyl-2-methoxy-4-methyl-N-((tetrahydrofuran-2-yl)methyl)benzenesulfonamide] |  |  |  |  |  |  | > 160 | >160 |  |
| COc1ccc(C(C)C)cc1S(=O)(=O)NCCN1CCOCC1 [TT0048803, 5-isopropyl-2-methoxy-N-(2-morpholinoethyl)benzene-sulfonamide] |  |  |  |  |  |  | < 5 | 20 |  |
| COc1cc(S(=O)(=O)NCCN2CCOCC2)c(OC)cc1C [TT0048874, 2,5-dimethoxy-4-methyl-N-(2-morpholinoethyl)benzene-sulfonamide] |  |  |  |  |  |  | 40 | 160 |  |
| CN1C(=O)CN=C(c2ccccc2)c2cc(Cl)ccc21 [diazepam] |  |  |  |  |  |  |  |  | prevention of the formation of the PTZ-induced behavior ([2]; zebrafish, in vivo): almost completely prevented |
| CC(=O)[C@H]1CC[C@H]2[C@@H]3CC[C@H]4C[C@](C)(O)CC[C@]4(C)[C@H]3CC[C@]12C [ganaxolone] |  |  |  |  |  |  |  |  | prevention of the formation of the PTZ-induced behavior ([2]; pre-treatment, non-sedative concentration 0.31 μM, data not shown): almost completely prevented |
| O=C1NC(=O)C(c2ccccc2)(c2ccccc2)N1 [phenytoin] |  |  |  |  |  |  |  |  | prevention of the formation of the PTZ-induced behavior ([2]; pre-treatment, 160 μM, data not shown): almost no effect |
| Cc1ccsc1C(=CCCN1CCC[C@@H](C(=O)O)C1)c1sccc1C [tiagabine, reference compound] |  |  |  |  |  |  |  |  | prevention of the formation of the PTZ-induced behavior ([2]; pre-treatment, non-sedative concentration 40 μM, data not shown): almost completely prevented; rescue of the behavioral profile induced by KCC2 inhibition (rescue score 0-1) ([1]; phenotype caused by 2.5 μM VU0463271 or 5 μM VU0240551, at least six concentrations): most effective |
